Experimental findings from patent US20250221943A1, “POLYDOPAMINE CO-POLYMER NANOPARTICLES” (CAMBRIDGE ENTERPRISE LIMITED, priority 2022, published 2025) are described below.

Data set [1] can be described thus: Loading content by UV-Vis. It is filed as physicochemical. To be noted: for loading content of the drug in F127@PDA NPs: physical adsorption, conventional method. How it is done: F127@PDA NPs (5 mg) was dissolved in 10 mM Tris buffer (5 mL) and Fluorescein-TEG-NH2 (10 mg, 2 wt eq.) dissolved in 0.5 mL ethanol was added dropwise. The mixture was protected from direct sunlight and stirred over night at room temperature. Excess Fluorescein-TEG-NH2 was removed washing with Milli-Q water using Vivaspin 20 (Satorius, UK) centrifugal concentrators (10 kDa MWCO) for 15 min at 4000 rpm until the supernatant was colourless, followed by 3 days dialysis against water with 12-14 kDa MWCO dialysis bags.
To assess the loading capacity, absorption of SN38 was investigated adapting a method by Wang et al.^[90] A suspension of 10 mg F127@PDA NPs (1 mg/mL) and 2.5 mg SN38 (0.25 wt eq.) in DMSO:H2O=1:10 (10 mL) were sonicated for 30 min, followed by stirring at room temperature for 72 hours. To remove free drug, the reaction mixture was first centrifuged at 2000 rpm for 5 min. The supernatant was collected and washed with Milli-Q water using Vivaspin 20 (Satorius, UK) centrifugal concentrators (10 kDa MWCO) for 15 min at 4000 rpm. The obtained particles were diluted in Milli-Q water, frozen in liquid nitrogen and lyophilised to yield a dark brown powder. The loading content of SN38 within the NPs was determined using UV-Vis. The absorbance of SN38@F127@PDA NPs at 382 nm was deducted by the F127@PDA absorbance and the loading content was calculated according to the following equation: (3).^[98]
F127@PDA NPs (5 mg) was dissolved in 10 mM Tris buffer (5 mL) and the corresponding ligand 4-6 (10 mg, 2 wt eq.) dissolved in 0.5 mL ethanol was added dropwise. The mixture was protected from direct sunlight and stirred over night at room temperature. […]
A suspension of 10 mg F127@PDA NPs (1 mg/mL) and 2.5 mg of the corresponding drug (0.25 wt eq.) in DMSO:H2O=1:10 (10 mL) were sonicated for 30 min, followed by stirring at room temperature for 72 hours. […] The loading content of Gem and PTX within the NPs was determined using UV-Vis. The absorbance of the free drug in the supernatant was measured and the loading content was calculated according to the following equation: […]

Data set [2] relates to PANC-1. The data set can be described thus: MTS assay cytotoxicity of SN38 and SN38@F127@PDA. To be noted: PANC-1, MTS, 72 h treatment. It is filed as cell-based, human. Here is the method:
(§1) Additionally, the effect of F127@PDA NPs on the viability of AsPC-1, BxPC-3, MIA PaCa-2, PANC-1 and ARPE-19 using MTS assay (Promega, USA.) Cells were seeded into clear 96-well plates containing 2000 cells/well in 100 μL complete growth medium and cultured for 24 h at 37° C. and 5% CO2. Subsequently, cells were treated with varying concentrations of F127@PDA_40, F127@PDA_60 and F127@PDA_100 (0.01-100 μg/mL) dissolved in complete growth media containing 0.1% water. After further 72 h incubation at 37° C. and 5% CO2, 20 μL of CelTiter 96® AQueous One Solution (Promega, USA) was added into each well and incubated at 37° C., 5% CO2 for 1-4 h, according to the manufacturer's instruction. The absorbance of each well was measured at 490 nm using a Spark plate reader (TECAN, CH). Control measurements included negative control of cells with DMEM, cells with DMEM containing 0.1% water, cell-free culture media (blank) and cell-free sample dilutions in culture media to evaluate potential sample interferences with MTS reagent. All experiments were conducted in biological triplicates. The percentage cell viability was calculated according to the following:
(§2) Cells were seeded into 96-well plates at concentration of 2000 cells/well, in 100 μl of complete growth medium and incubated at 37 C, 5% CO2 for 24 h. After overnight incubation, the cells were treated with SN38 and the same concentration of SN38@F127@PDA using various concentrations (0.0001 μM-1 μM). The plates were inserted into the IncuCyte®S3 Live-Cell Analysis System (Sartorius) for real-time imaging. Treated plates were imaged every 3 h for 72 h under cell culture conditions with 10× objective using the brightfield channel. Average cell confluence was calculated as described in the previous section. In addition to live cell imaging after 72 h incubation in the IncuCyte®S3 MTS assay was performed as described in the section above.

In data set [3] the test system is BxPC-3. The data set can be described thus: MTS assay cytotoxicity of SN38 and SN38@F127@PDA. Type of data set: cell-based, human. To be noted: BxPc-3, MTS, 72 h treatment. Here is the method:
as §1, §2

Data set [4] deals with MIA PaCa-2. The data set can be described thus: MTS assay cytotoxicity of SN38 and SN38@F127@PDA. It is filed as cell-based, human. To be noted: MIA PaCa-2, MTS, 72 h treatment. How it is done:
as §1, §2

For data set [5], the system named is AsPC-1. The experiment in a line: MTS assay cytotoxicity of SN38 and SN38@F127@PDA. Type of data set: cell-based, human. To be noted: AsPC-1, MTS, 72 h treatment. How it is done: as §1, §2
In data set [6] the test system is PANC-1. The data set can be described thus: Live-cell imaging (IncuCyte) cytotoxicity of SN38 and SN38@F127@PDA. To be noted: PANC-1, live-cell imaging, 72 h treatment. It is filed as cell-based, human. Here is the method:
(§3) All NPs were tested for cytotoxicity studies in AsPC-1, BxPC-3, MIA-PaCa-2, PANC-1 and ARPE-19. Cells were seeded into 96-well plates at concentration of 2000 cells/well, in 200 μl of complete growth medium and incubated at 37 C, 5% CO2 for 24 h. After overnight incubation, the cells were treated with different concentration of F127@PDA-40, F127@PDA-60 and F127@PDA-100 (0.01-100 μg/mL) dissolved in complete cell media, the same volume of water was added for the negative control. The plates were then inserted into the IncuCyte®S3 Live-Cell Analysis System (Sartorius) for real-time imaging. Treated plates were imaged every 3 h for 72 h under cell culture conditions with 10× objective using the brightfield channel. Mean cell confluence was calculated using the images taken from 3 random fields of view per well using the IncuCyte S3 v2017A software. All Incucyte experiments were performed in triplicate in three independent experiments. Relative confluence values were obtained by normalizing each value to the time zero value in each sample and normalised to the untreated control sample.
as §2

In data set [7] the test system is BxPC-3. The data set is described as above. Type of data set: cell-based, human. To be noted: BxPc-3, live-cell imaging, 72 h treatment. How it is done:
as §3, §2

Data set [8] concerns MIA PaCa-2. The description is as above. It is filed as cell-based, human. To be noted: MIA PaCa-2, live-cell imaging, 72 h treatment. How it is done: as §3, §2
The subject of data set [9] is AsPC-1. The description is as above. It is filed as cell-based, human. To be noted: AsPC-1, live-cell imaging, 72 h treatment. How it is done: as §3, §2

Turning to `CC(=O)O[C@H]1C(=O)[C@@]2(C)[C@H]([C@H](OC(=O)c3ccccc3)[C@]3(O)C[C@H](OC(=O)[C@H](O)[C@@H](NC(=O)c4ccccc4)c4ccccc4)C(C)=C1C3(C)C)[C@]1(OC(C)=O)CO[C@@H]1C[C@@H]2O` [PTX, Paclitaxel], the “loading content of the drug in F127@PDA NPs” value in data set [1] is 14.3±4.7 % (w/w).
For the compound `CCc1c2c(nc3ccc(O)cc13)-c1cc3c(c(=O)n1C2)COC(=O)[C@]3(O)CC` [SN38], the half-inhibitory concentration (IC50) was 113 nM in the data set with PANC-1 [2]; 56 nM in the data set with BxPC-3 [3]; 13.1 nM with MIA PaCa-2 [4]; 110 nM in the data set on AsPC-1 [5]; 56.1 nM in the data set on PANC-1 [6]; 8.91 nM in the data set on BxPC-3 [7]. Moreover, the IC50 was determined as 12.1 nM in the data set with MIA PaCa-2 [8] and 52.9 nM with AsPC-1 [9].
In the case of `Nc1ccn([C@@H]2O[C@H](CO)[C@@H](O)C2(F)F)c(=O)n1` [Gem, Gemcitabine], the “loading content of the drug in F127@PDA NPs” value in data set [1] was 11.5±5.7 % (w/w).
Take “TAMRA-CONH—PKKKRKVC—COOH ({TAMRA}-PKKKRKVC-OH) [TAMRA-NLS]”: the “loading content (w/w) of the ligand on functionalized F127@PDA NPs” value in [1] (Michael addition post-functionalization) was found to be 3%.
